Starred links: 1 amine or outer side, 2 acyl side, 3 side chain; linkers in the order of their positions; H or OH if unused. Non-standard residues stand in square brackets, D forms with d. Residues, ends and D or L forms follow the SMILES beside them. Groups on a side chain read outwards from the residue. *: point of attachment. C18 diacid = O=C(O)CCCCCCCCCCCCCCCCC(=O)*; γGlu = O=C(O)[C@H](CCC(=O)[*:2])N[*:1]; Ac4c = NC1(C(=O)O)CCC1; AEEA = NCCOCCOCC(=O)O; Aib = CC(C)(N)C(=O)O
What was measured:
human GLP-1 receptor = target: T1, human GLP-1 receptor (Homo sapiens, UniProt P43220); test: Assay (I)(a) GLP-1 receptor activation, CRE luciferase reporter gene assay in BHK cells; type: cell-based; conditions: without presence of serum albumin; read-out: GLP-1R EC50 (pM) [Assay (I)(a)]
T1 construct: expressed in transfected cells; host or cells: membranes of BHK cells (parent BHKTS13), clone FCW467-12A
T1 sequence (P43220 24-463): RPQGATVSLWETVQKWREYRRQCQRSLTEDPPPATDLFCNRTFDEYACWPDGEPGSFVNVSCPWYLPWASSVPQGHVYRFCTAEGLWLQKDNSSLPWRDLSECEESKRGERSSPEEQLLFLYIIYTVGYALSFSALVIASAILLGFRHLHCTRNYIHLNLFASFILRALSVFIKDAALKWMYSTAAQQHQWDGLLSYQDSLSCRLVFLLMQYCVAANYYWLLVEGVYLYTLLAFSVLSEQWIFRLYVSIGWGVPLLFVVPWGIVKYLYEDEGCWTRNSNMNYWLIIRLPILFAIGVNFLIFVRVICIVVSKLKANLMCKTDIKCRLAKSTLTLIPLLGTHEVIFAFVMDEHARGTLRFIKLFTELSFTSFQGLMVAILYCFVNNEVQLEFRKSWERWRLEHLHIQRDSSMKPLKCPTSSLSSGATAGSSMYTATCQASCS
Summary of the method: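 Stable BHK clone expressing human GLP-1 receptor with CRE-driven firefly luciferase, 5×10EE3 cells/well in medium with 2% ovalbumin and 0.2% Pluronic F-68. Compounds at 1×10EE-13 to 1×10EE-6 M final, 3 h at 37° C.; luminescence read, EC50 (pM) from four-parameter fit.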

[1] = Assay (III) ThT fibrillation assay for physical stability; type: physicochemical; conditions: 250 μM in 10 mM HEPES buffer, 37° C., shaking 960 rpm
Summary of the method: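 Glucagon derivative at 250 μM in 10 mM HEPES pH 7.5 with 1 μM ThT was incubated at 37 °C under 960 rpm orbital shaking. Fluorescence (ex 444/em 485 nm) was read every 20 min and fitted for lag time (t0−2τ) and kapp (1/τ). Recovery was soluble peptide after centrifugation/filtration, by RP-HPLC, as percent of initial.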

EC50 (human GLP-1 receptor) | ThT Assay Lag time (h) [Assay (III), pH 7.5] [1] | SMILES
4 pM | 6.3 h | CC[C@H](C)[C@H](NC(=O)[C@H](CC(C)C)NC(=O)[C@H](Cc1c[nH]c2ccccc12)NC(=O)[C@H](CCC(N)=O)NC(=O)[C@@H](NC(=O)[C@H](Cc1ccccc1)NC(=O)[C@H](CC(=O)O)NC(=O)[C@H](CCCNC(=N)N)NC(=O)[C@H](C)NC(=O)[C@H](CCCNC(=N)N)NC(=O)[C@H](CCCNC(=N)N)NC(=O)[C@H](CO)NC(=O)[C@H](CCC(=O)O)NC(=O)[C@H](CC(C)C)NC(=O)[C@H](Cc1ccc(O)cc1)NC(=O)[C@H](CCCNC(=N)N)NC(=O)[C@H](CO)NC(=O)[C@H](Cc1ccc(O)cc1)NC(=O)[C@H](CC(=O)O)NC(=O)[C@H](CO)NC(=O)[C@@H](NC(=O)[C@H](Cc1ccccc1)NC(=O)[C@@H](NC(=O)CNC(=O)[C@H](CCC(N)=O)NC(=O)C(C)(C)NC(=O)[C@@H](N)Cc1c[nH]cn1)[C@@H](C)O)[C@@H](C)O)C(C)C)C(=O)N[C@@H](CCCCNC(=O)CC[C@H](NC(=O)COCCOCCNC(=O)CC[C@H](NC(=O)COCCOCCNC(=O)CC[C@H](NC(=O)COCCOCCNC(=O)CC[C@H](NC(=O)CC[C@H](NC(=O)CCCCCCCCCCCCCCCCC(=O)O)C(=O)O)C(=O)O)C(=O)O)C(=O)O)C(=O)O)C(=O)N[C@H](C(N)=O)[C@@H](C)O [Chem. 37, N^28-[(4S)-4-carboxy-4-[[2-[2-[2-[[(4S)-4-carboxy-4-[[2-[2-[2-[[(4S)-4-carboxy-4-[[2-[2-[2-[[(4S)-4-carboxy-4-[[(4S)-4-carboxy-4-(17-carboxyheptadecanoylamino)butanoyl]amino]butanoyl]amino]ethoxy]ethoxy]acetyl]amino]butanoyl]amino]ethoxy]ethoxy]acetyl]amino]butanoyl]amino]ethoxy]ethoxy]acetyl]amino]butanoyl]-[Aib2,Arg12,Glu15,Arg20,Ile27,Lys28]-Glucagon amide] (H-H[Aib]QGTFTSDYSRYLESRRARDFVQWLIK([γGlu-AEEA-γGlu-AEEA-γGlu-AEEA-γGlu-γGlu-C18 diacid])T-NH2; N-terminus assumed)
2 pM | 45.0 h | CC[C@H](C)[C@H](NC(=O)[C@H](CC(C)C)NC(=O)[C@H](Cc1c[nH]c2ccccc12)NC(=O)[C@H](CCC(N)=O)NC(=O)[C@@H](NC(=O)[C@H](Cc1ccccc1)NC(=O)[C@H](CCC(=O)O)NC(=O)[C@H](CCC(N)=O)NC(=O)[C@H](C)NC(=O)[C@H](CCCNC(=N)N)NC(=O)[C@H](CCCNC(=N)N)NC(=O)[C@H](CO)NC(=O)[C@H](CCC(=O)O)NC(=O)[C@H](CC(C)C)NC(=O)[C@H](Cc1ccc(O)cc1)NC(=O)[C@H](CCCCN)NC(=O)[C@H](CO)NC(=O)[C@H](CC(C)C)NC(=O)[C@H](CC(=O)O)NC(=O)[C@H](CO)NC(=O)[C@@H](NC(=O)[C@H](Cc1ccccc1)NC(=O)[C@@H](NC(=O)CNC(=O)[C@H](CCC(N)=O)NC(=O)C1(NC(=O)[C@@H](N)Cc2c[nH]cn2)CCC1)[C@@H](C)O)[C@@H](C)O)C(C)C)C(=O)N[C@@H](CCCCNC(=O)CC[C@H](NC(=O)COCCOCCNC(=O)COCCOCCNC(=O)CC[C@H](NC(=O)CC[C@H](NC(=O)CCCCCCCCCCCCCCCCC(=O)O)C(=O)O)C(=O)O)C(=O)O)C(=O)N[C@H](C(N)=O)[C@@H](C)O [Chem. 38, N^ε28-[(4S)-4-carboxy-4-[[2-[2-[2-[[2-[2-[2-[[(4S)-4-carboxy-4-[[(4S)-4-carboxy-4-(17-carboxyheptadecanoylamino)butanoyl]amino]butanoyl]amino]ethoxy]ethoxy]acetyl]amino]ethoxy]ethoxy]acetyl]amino]butanoyl]-[Acb2,Leu10,Glu15,Glu21,Ile27,Lys28]-Glucagon amide] (H-H[Ac4c]QGTFTSDLSKYLESRRAQEFVQWLIK([γGlu-AEEA-AEEA-γGlu-γGlu-C18 diacid])T-NH2; N-terminus assumed)
